Common to all, as to format: biochemical
Experiment [1] deals with T1, CYP3A4 (Homo sapiens, UniProt P08684). The experiment can be described thus: Determination of compound Kiapp against recombinant CYP3A4 enzyme (BFC fluorescent substrate). The essentials:
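Kiapp derived from initial velocities over the first 5 min of BFC (5 uM) oxidation, using Morrison's tight-binding equation for non-partial and Szedlacsek's for partial inhibitors. Inhibitor first pre-incubated ≥30 min with CYP3A4 (5.5 or 8 nM, ±b5) in pH 7.0 phosphate/TCEP/2% DMF at room temperature; 200 uM NADPH initiated.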

Experiment [2] concerns the target T1, CYP3A4. The experiment can be described thus: Determination of IC50 against CYP3A4 by measurement of inhibition of testosterone metabolism (human liver microsomes, 6-β-OH-testosterone by LC-MS/MS). On the set-up: 0.1 mg/mL human liver microsomes. The note with it: read-out: IC50 (Testo.). A digest of the protocol: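 6-β-OH-testosterone formation was read by LC-MS/MS (MRM, internal standard, standard curve) after eight minutes. Reaction contained testosterone 25 μM, NADPH 1 mM and microsomal protein 0.1 mg/mL in pH 7.4 potassium phosphate (100 mM).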
On the technique in general: Liver microsomes are vesicles of endoplasmic reticulum, rich in cytochrome P450 enzymes.

Experiment [3] has as its target T1, CYP3A4. The experiment can be described thus: Determination of IC50 against CYP3A4 by measurement of inhibition of midazolam metabolism (human liver microsomes, 1-hydroxymidazolam by LC-MS/MS). Details: 0.1 mg/mL human liver microsomes. The following applies: 2 μM midazolam, 0.1 mg/mL human liver microsomes. The essentials:
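Human liver microsomes (0.1 mg/mL) incubated 8 min with 2 μM midazolam and 1 mM NADPH in 100 mM potassium phosphate, pH 7.4. 1-Hydroxymidazolam quantified by LC-MS/MS (MRM) as peak area ratio to internal standard against a metabolite standard curve.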

Setting [4] is: Baculo. enzyme preparation, read-out: Kiapp (BFC, Baculo.).
Where [5] appears, read: Super. enzyme preparation, read-out: Kiapp (BFC, Super.).

For orientation: pIC50 means the IC50 on a negative log10 scale, so that one unit is a factor of ten.

pIC50, pKi: −log10 of the molar value. Like-named read-outs stand apart in the source and are kept apart here.

T1 sequence (P08684 whole entry): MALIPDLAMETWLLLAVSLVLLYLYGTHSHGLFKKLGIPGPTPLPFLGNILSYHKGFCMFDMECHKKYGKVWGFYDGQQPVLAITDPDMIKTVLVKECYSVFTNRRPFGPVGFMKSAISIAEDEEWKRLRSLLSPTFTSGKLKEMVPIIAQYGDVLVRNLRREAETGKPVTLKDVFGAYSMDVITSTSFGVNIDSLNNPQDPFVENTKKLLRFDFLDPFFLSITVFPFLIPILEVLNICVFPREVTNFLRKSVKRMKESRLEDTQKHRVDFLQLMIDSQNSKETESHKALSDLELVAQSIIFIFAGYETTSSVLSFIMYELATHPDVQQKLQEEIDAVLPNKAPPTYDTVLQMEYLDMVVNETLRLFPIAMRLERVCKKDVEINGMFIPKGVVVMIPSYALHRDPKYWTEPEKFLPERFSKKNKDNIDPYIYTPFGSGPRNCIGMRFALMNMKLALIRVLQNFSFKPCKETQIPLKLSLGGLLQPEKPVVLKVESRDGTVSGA

On to `CN(c1cccnc1)S(=O)(=O)c1ccccc1C(=O)NCC1CCCC1` [Example 332, N-(cyclopentylmethyl)-2-{[methyl(pyridin-3-yl)amino]sulfonyl}benzamide], for which the values for the pKi in experiment [1] (setting [4]) and in experiment [1] (setting [5]) were 6.48 and 7.21, respectively. Also, the pIC50 in experiment [2] and in experiment [3] was 7.89 in each case.

On to `Cc1cncc(NS(=O)(=O)c2ccccc2C(=O)N(C)Cc2ccccc2)c1` [Example 335, N-benzyl-N-methyl-2-{[(5-methylpyridin-3-yl)amino]sulfonyl}benzamide], for which the results for the pKi in experiment [1] (setting [4]) and in experiment [1] (setting [5]) were 7.01 and 7.77, respectively. In addition, the figures for the pIC50 in experiment [2] and in experiment [3] were 7.55 and 7.70, respectively.

For `Cc1cncc(NS(=O)(=O)c2ccccc2C(=O)N2CCC(C)CC2)c1` [Example 363, 2-[(4-methylpiperidin-1-yl)carbonyl]-N-(5-methylpyridin-3-yl)benzenesulfonamide], the pKi in experiment [1] (setting [4]) was 6.77; in experiment [1] (setting [5]), 7.44. Also, the pIC50 in experiment [2] is 7.12; in experiment [3], 7.43.

`Cc1cccc(CCNC(=O)c2ccccc2S(=O)(=O)Nc2cccnc2)c1` [Example 76, N-[2-(3-methylphenyl)ethyl]-2-[(pyridin-3-ylamino)sulfonyl]benzamide]: the values for the pKi in experiment [1] (setting [4]) and in experiment [1] (setting [5]) were 7.12 and 8.03, respectively. For the same molecule, the pIC50 in experiment [2] is 7.54; in experiment [3] it was 7.62.

With `O=C(c1ccccc1S(=O)(=O)Nc1cccnc1)N1CCOCC1` [Example 21, 2-(morpholin-4-ylcarbonyl)-N-pyridin-3-ylbenzenesulfonamide], in experiment [1] (setting [4]), the pKi is under 6.00. The pIC50 in experiment [2] and in experiment [3] was under 6.12 each time.

For the molecule `CC1(C)CCCN(C(=O)c2ccccc2S(=O)(=O)Nc2cccnc2)C1` [Example 29, 2-[(3,3-dimethylpiperidin-1-yl)carbonyl]-N-pyridin-3-ylbenzenesulfonamide], the pKi in experiment [1] (setting [4]) was 6.49. The pIC50 was 6.76 in experiment [2] and 7.12 in experiment [3].

Regarding `O=C(NCc1cccc(F)c1)c1ccccc1S(=O)(=O)Nc1cccnc1` [Example 43, N-(3-fluorobenzyl)-2-[(pyridin-3-ylamino)sulfonyl]benzamide], the results for the pKi in experiment [1] (setting [4]) and in experiment [1] (setting [5]) were 6.57 and 7.78, respectively. The pIC50 is 7.66 in experiment [2] and 7.87 in experiment [3].

Regarding `CCCCNC(=O)c1ccccc1S(=O)(=O)Nc1cccnc1` [Example 63, N-butyl-2-[(pyridin-3-ylamino)sulfonyl]benzamide], the pKi is 6.35 in experiment [1] (setting [4]) and 7.37 in experiment [1] (setting [5]). The pIC50 was 7.08 in experiment [2] and 7.07 in experiment [3].

`COc1cncc(NS(=O)(=O)c2ccccc2C(=O)NCc2cc(Cl)ccc2F)c1` [Example 151, N-(5-chloro-2-fluorobenzyl)-2-{[(5-methoxypyridin-3-yl)amino]sulfonyl}benzamide]: the pKi is 6.92 in experiment [1] (setting [4]) and 7.91 in experiment [1] (setting [5]). Also, the pIC50 is 7.80 in experiment [2] and 7.55 in experiment [3].

Take `CCCN(CC1CC1)C(=O)c1ccccc1S(=O)(=O)Nc1cncc(OC)c1` [Example 390, N-(cyclopropylmethyl)-2-{[(5-methoxypyridin-3-yl)amino]sulfonyl}-N-propylbenzamide]: the pKi in experiment [1] (setting [4]) was 7.07; in experiment [1] (setting [5]) it was 8.75. Also, the pIC50 in experiment [2] was 7.15; in experiment [3], 7.74.

Consider `O=C(NCC1CCCC1)c1ccccc1S(=O)(=O)Nc1cccnc1` [Example 64, N-(cyclopentylmethyl)-2-[(pyridin-3-ylamino)sulfonyl]benzamide], for which the pKi in experiment [1] (setting [4]) was 6.72; in experiment [1] (setting [5]), 7.89. The negative logarithm of the IC50 (pIC50) is 7.50 in experiment [2] and 7.52 in experiment [3].

Turning to `CCOc1ccncc1NS(=O)(=O)c1ccccc1C(=O)N(C)Cc1ccc(F)c(F)c1` [Example 251, N-(3,4-difluorobenzyl)-2-{[(4-ethoxypyridin-3-yl)amino]sulfonyl}-N-methylbenzamide], the figures for the pKi in experiment [1] (setting [4]) and in experiment [1] (setting [5]) were 8.07 and 8.27, respectively. Also, the pIC50 in experiment [2] is 7.92; in experiment [3], 8.00.

Turning to `COc1cncc(NS(=O)(=O)c2ccccc2C(=O)NC(C)(C)C)c1` [Example 374, N-(tert-butyl)-2-{[(5-methoxypyridin-3-yl)amino]sulfonyl}benzamide], the pKi was 6.32 in experiment [1] (setting [4]) and 7.13 in experiment [1] (setting [5]). Also, the pIC50 in experiment [2] is 7.10; in experiment [3] it was 7.54.

As for `CCOc1ccncc1NS(=O)(=O)c1ccccc1C(=O)NCCc1ccccc1C` [Example 269, 2-{[(4-ethoxypyridin-3-yl)amino]sulfonyl}-N-[2-(2-methylphenyl)ethyl]benzamide], the pKi in experiment [1] (setting [4]) is 7.74; in experiment [1] (setting [5]), 8.48. Also, the pIC50 in experiment [2] was 7.89; in experiment [3], 8.05.

On to `COc1ccc(CNC(=O)c2ccccc2S(=O)(=O)Nc2cccnc2)c(OC)c1` [Example 53, N-(2,4-dimethoxybenzyl)-2-[(pyridin-3-ylamino)sulfonyl]benzamide], for which, in experiment [1] (setting [4]), the pKi is 6.21. Besides, the figures for the pIC50 in experiment [2] and in experiment [3] were 7.31 and 7.62, respectively.

Take `CCC(CC)NC(=O)c1ccccc1S(=O)(=O)Nc1cncc(OC)c1` [Example 193, N-(1-ethylpropyl)-2-{[(5-methoxypyridin-3-yl)amino]sulfonyl}benzamide]: the pKi in experiment [1] (setting [4]) is 7.39; in experiment [1] (setting [5]), 7.66. The pIC50 in experiment [2] is 7.57; in experiment [3], 7.89.

Take `CC(C)CCNC(=O)c1ccccc1S(=O)(=O)N(C)c1cccnc1` [Example 323, N-(3-methylbutyl)-2-{[methyl(pyridin-3-yl)amino]sulfonyl}benzamide]: the pKi in experiment [1] (setting [4]) is 6.68; in experiment [1] (setting [5]) it was 6.66. The negative-log IC50 (pIC50) in experiment [2] was 7.23; in experiment [3] it was 7.55.

Regarding `COc1cncc(NS(=O)(=O)c2ccccc2C(=O)N(C)CCC(C)C)c1` [Example 338, 2-{[(5-methoxypyridin-3-yl)amino]sulfonyl}-N-methyl-N-(3-methylbutyl)benzamide], the pKi was 7.62 in experiment [1] (setting [4]) and 8.17 in experiment [1] (setting [5]). Also, the pIC50 in experiment [2] is 7.52; in experiment [3], 7.64.

With `COc1cncc(NS(=O)(=O)c2ccccc2C(=O)NC(C)c2ccc(Cl)cc2)c1` (stereo not drawn) [Example 182, N-[1-(4-chlorophenyl)ethyl]-2-{[(5-methoxypyridin-3-yl)amino]sulfonyl}benzamide], the pKi in experiment [1] (setting [4]) is 7.43; in experiment [1] (setting [5]) it was 8.46. Moreover, the pIC50 in experiment [2] is 7.89; in experiment [3] it was 8.22.

`COc1cncc(NS(=O)(=O)c2ccccc2C(=O)N2CCC(O)CC2)c1` [Example 365, 2-[(4-hydroxypiperidin-1-yl)carbonyl]-N-(5-methoxypyridin-3-yl)benzenesulfonamide]: the pKi is under 6.00 in experiment [1] (setting [4]) and 6.29 in experiment [1] (setting [5]). The pIC50 in experiment [2] and in experiment [3] was under 6.12 each time.

Turning to `CCOCCNC(=O)c1ccccc1S(=O)(=O)Nc1cncc(OC)c1` [Example 237, N-(2-ethoxyethyl)-2-{[(5-methoxypyridin-3-yl)amino]sulfonyl}benzamide], the pKi in experiment [1] (setting [4]) is 6.01; in experiment [1] (setting [5]), 6.85. The pIC50 is 6.67 in experiment [2] and 6.90 in experiment [3].

For the origin of these results see US7868026B2, “Therapeutic compounds” (Pfizer Inc., priority 2005, dated 2011).
